In ChEMBL document CHEMBL5143656, “Polyphenolic compounds: Synthesis, assessment of antimicrobial effect and enzymes inhibition against important medicinal enzymes with computational details” (Bioorg Med Chem Lett, 2022) one finds IC50 and MIC data, which are given here for 5 molecules.

For orientation: pIC50 means −log10 of the IC50, conventionally taken in molar units. One may read the IC50 as the concentration that inhibits the measured activity by half. In general, MIC refers to the smallest concentration in the dilution series that meets the test's criterion for growth inhibition. A higher MIC goes with a need for much substance.

Structures are written as SMILES. pIC50: −log10 of the molar value. ≈ marks a conversion by molar mass, not a printed value.

The target of one test is Acetylcholinesterase (Homo sapiens, UniProt P22303). Kind of test: Inhibition of AChE (unknown origin) using […] as substrate incubated for 10 mins by Ellman's method. For orientation: Ellman's reagent forms a yellow product with free thiols.
Chain of Acetylcholinesterase (P22303 whole entry): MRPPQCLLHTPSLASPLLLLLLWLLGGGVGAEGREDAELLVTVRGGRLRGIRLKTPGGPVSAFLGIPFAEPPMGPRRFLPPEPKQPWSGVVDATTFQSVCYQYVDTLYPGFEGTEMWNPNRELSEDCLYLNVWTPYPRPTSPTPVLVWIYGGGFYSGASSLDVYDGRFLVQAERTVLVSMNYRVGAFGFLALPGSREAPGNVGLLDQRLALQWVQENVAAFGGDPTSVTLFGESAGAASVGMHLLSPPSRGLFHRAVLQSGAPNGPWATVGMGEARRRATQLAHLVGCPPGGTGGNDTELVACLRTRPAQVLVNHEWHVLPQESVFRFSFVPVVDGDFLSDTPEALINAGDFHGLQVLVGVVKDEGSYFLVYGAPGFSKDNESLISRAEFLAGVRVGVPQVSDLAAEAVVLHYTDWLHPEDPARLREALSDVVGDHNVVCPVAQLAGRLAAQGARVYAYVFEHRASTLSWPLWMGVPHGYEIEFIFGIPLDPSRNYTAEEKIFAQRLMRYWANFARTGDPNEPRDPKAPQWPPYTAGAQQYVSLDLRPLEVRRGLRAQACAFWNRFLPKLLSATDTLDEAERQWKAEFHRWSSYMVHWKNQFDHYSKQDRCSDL
For a further test, the target named is Cholinesterase (Homo sapiens, UniProt P06276). Nature of the test: Inhibition of BChE (unknown origin) using […] as substrate incubated for 10 mins by Ellman's method.
Chain of Cholinesterase (P06276 whole entry): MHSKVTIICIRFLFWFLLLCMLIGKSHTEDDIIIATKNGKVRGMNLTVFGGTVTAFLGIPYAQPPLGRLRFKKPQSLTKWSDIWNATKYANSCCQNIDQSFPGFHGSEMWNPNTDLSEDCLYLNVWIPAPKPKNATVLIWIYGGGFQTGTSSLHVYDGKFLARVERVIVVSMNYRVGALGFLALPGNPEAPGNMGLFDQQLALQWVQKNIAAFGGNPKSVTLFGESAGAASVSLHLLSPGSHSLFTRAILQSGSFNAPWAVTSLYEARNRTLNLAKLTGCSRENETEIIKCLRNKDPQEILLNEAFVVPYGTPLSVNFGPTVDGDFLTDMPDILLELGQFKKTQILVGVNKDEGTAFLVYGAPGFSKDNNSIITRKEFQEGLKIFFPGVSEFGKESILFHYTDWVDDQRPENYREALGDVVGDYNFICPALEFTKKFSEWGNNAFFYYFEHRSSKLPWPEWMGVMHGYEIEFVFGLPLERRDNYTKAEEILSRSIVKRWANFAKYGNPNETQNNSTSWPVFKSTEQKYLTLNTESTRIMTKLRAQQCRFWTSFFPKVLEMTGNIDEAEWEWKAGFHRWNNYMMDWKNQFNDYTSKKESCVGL
Test [1] concerns the target T1, Tyrosinase (Homo sapiens, UniProt P14679).
T1 sequence (P14679 whole entry): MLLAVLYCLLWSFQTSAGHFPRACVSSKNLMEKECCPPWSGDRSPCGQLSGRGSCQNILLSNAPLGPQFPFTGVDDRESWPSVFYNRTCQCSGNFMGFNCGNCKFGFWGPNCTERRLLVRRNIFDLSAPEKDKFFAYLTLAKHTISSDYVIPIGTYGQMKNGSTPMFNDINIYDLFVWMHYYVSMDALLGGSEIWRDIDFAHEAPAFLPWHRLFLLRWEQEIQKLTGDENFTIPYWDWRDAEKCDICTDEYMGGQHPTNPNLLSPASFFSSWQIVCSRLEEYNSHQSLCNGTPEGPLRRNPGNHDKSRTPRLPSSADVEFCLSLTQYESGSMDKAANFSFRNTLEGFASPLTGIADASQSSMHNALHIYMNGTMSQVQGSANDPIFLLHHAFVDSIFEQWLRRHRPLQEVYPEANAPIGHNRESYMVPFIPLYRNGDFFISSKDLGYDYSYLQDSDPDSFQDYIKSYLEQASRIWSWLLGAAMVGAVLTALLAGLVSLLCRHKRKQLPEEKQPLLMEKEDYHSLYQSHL
Kind of test: Inhibition of tyrosinase (unknown origin) using L-DOPA as substrate incubated for 10 mins.

In the next test the test system is PC-3. Kind of test: Cytotoxicity in human PC3 cells assessed as reduction in cell viability incubated for 24 hrs by MTT assay. Format: functional, cell-based. The conditions noted are these: PC-3, 24 h. In general terms: Formazan colour is commonly taken as a measure of viable cells.
Another test deals with Escherichia coli. Kind of test: Antimicrobial activity Escherichia coli against incubated for 24 hrs. Format: functional.
In another test the test system is Klebsiella pneumoniae. Nature of the test: Antimicrobial activity Klebsiella pneumoniae against incubated for 24 hrs. The class given is functional.
The subject of a further test is Staphylococcus aureus. Kind of test: Antimicrobial activity Staphylococcus aureus against incubated for 24 hrs. The class given is functional.
The next test relates to Enterococcus faecalis. Kind of test: Antimicrobial activity Enterococcus faecalis against incubated for 24 hrs. Format: functional.
The next test has as its system Candida albicans. Nature of the test: Antimicrobial activity Candida albicans against incubated for 24 hrs. Format: functional.
In a further test the test system is Cyberlindnera jadinii. Kind of test: Antimicrobial activity Candida utilis against incubated for 24 hrs. The class given is functional. The following applies: Williopsis jadinii.
Test [2] deals with T1, Tyrosinase. Kind of test: Inhibition of tyrosinase (unknown origin).

Take `CCC(c1ccc(O)c(OC)c1)c1cccc(O)c1O` (stereo not drawn): the figures for the pIC50 at Acetylcholinesterase, at Cholinesterase and against Tyrosinase [1] were 5.25, 5.55 and 5.63, respectively. In addition, in the test on PC-3, the IC50 came out at 16.1 µg/mL (≈ 58.9 µM). For the same molecule, the MIC in the test on Escherichia coli was 181 µg/mL (≈ 659 µM); against Klebsiella pneumoniae, 277 µg/mL (≈ 1010 µM); in the test on Staphylococcus aureus, 284 µg/mL (≈ 1040 µM); in the test on Enterococcus faecalis it was 369 µg/mL (≈ 1350 µM); against Candida albicans, 448 µg/mL (≈ 1630 µM); against Cyberlindnera jadinii, 467 µg/mL (≈ 1700 µM).

Take `CCC(c1ccc(O)c(OC)c1)c1ccc(OC)cc1O` (stereo not drawn): the pIC50 is 5.32 against Acetylcholinesterase, 5.65 against Cholinesterase and 5.55 against Tyrosinase [1]. Moreover, in the test on PC-3, the half-maximal inhibitory concentration (IC50) was determined as 12.2 µg/mL (≈ 42.2 µM). The MIC is 269 µg/mL (≈ 933 µM) against Escherichia coli; 204 µg/mL (≈ 707 µM) in the test on Klebsiella pneumoniae; 184 µg/mL (≈ 638 µM) against Staphylococcus aureus; 112 µg/mL (≈ 389 µM) in the test on Enterococcus faecalis; 220 µg/mL (≈ 761 µM) with Candida albicans; 249 µg/mL (≈ 864 µM) against Cyberlindnera jadinii.

For the molecule `O=c1c(O)c(-c2ccc(O)cc2)oc2cc(O)cc(O)c12` [KAEMPFEROL], the pIC50 against Tyrosinase [2] is 4.19.

`O=c1c(O)c(-c2ccc(O)c(O)c2)oc2cc(O)cc(O)c12` [QUERCETIN] gave a pIC50 against Tyrosinase [2] of […].

At Tyrosinase [2], `O=C(/C=C/c1ccc(O)cc1)OC[C@H]1O[C@@H](Oc2c(-c3ccc(O)cc3)oc3cc(O)cc(O)c3c2=O)[C@H](O)[C@@H](O)[C@@H]1O` [TILIROSIDE] had a pIC50 of 4.10.
